Measurements published in patent publication US12319641B2, “Lobaric acid derivative having PTP-1B inhibitory activity, preparation method therefor and use thereof” (SNBIOSCIENCE INC., priority 2019, dated 2025).
Where two headings read alike, the source gives them in different places.

Key:
[1] = molecular target: T1, protein tyrosine phosphatase-1B (PTP-1B) (Homo sapiens, UniProt P18031); test: PTP-1B inhibitory activity, enzyme activity measured spectroscopically with pNPP substrate; format: biochemical
T1 construct: purchased Bioneer, Korea
T1 sequence (P18031 1-435): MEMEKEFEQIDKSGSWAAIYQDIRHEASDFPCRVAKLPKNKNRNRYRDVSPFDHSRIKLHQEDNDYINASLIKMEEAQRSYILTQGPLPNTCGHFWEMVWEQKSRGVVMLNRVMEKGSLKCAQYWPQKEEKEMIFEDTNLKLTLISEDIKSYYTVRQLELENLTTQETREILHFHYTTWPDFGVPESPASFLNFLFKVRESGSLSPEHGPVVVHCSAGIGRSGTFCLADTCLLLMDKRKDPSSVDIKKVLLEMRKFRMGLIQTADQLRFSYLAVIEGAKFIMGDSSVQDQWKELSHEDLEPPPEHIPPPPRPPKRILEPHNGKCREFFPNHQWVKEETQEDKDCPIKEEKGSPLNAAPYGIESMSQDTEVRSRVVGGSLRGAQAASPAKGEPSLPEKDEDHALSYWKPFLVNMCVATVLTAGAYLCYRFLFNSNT
Method: In order to analyze protein tyrosine phosphatase-1B (PTP-1B) inhibitory activity, enzyme activity was measured spectroscopically.
Specifically, to 0.5 μg/mL of PTP-1B (Bioneer, Korea), PTP-1B buffer (50 mM Bis-tris buffer, pH 6.5, 1 mM EDTA, 1 mM DTT), dimethyl lobamide (M11A7) (0, 0.4, 0.8, 1.6, 3.12, 6.25, 12.5, 25 nM) and the substrate pNPP (para Nitrophenyl phosphate, Sigma, USA) were added and reacted at room temperature for 30 minutes. Then, 10 N NaOH was added thereto, followed by reaction at room temperature for 5 minutes to terminate the reaction between PTP-1B, dimethyl lobamide and the substrate. Thereafter, the absorbance was measured at 405 nm.

[2] = system: db/db mice (type 2 diabetes model animal); test: Blood glucose after daily oral administration in diabetic disease model animals; format: in vivo; conditions: for antidiabetic effects by oral administration: diabetic disease model animals
Method: To more accurately measure antidiabetic effects of dimethyl lobamide, 200 μl of PBS as a control and 50 mg/kg of dimethyl lobamide compound as an experimental group were orally administered daily to 7-week-old male db/db mice (type 2 diabetes model animal, C57/BLKS/J-db/db, Korea Research Institute of Bioscience and Biotechnology). Thereafter, blood glucose was measured once a week. At this time, after oral administration, blood glucose was measured after fasting for 6 hours.

[3] = Body weight after oral administration in diabetic disease model animals; format: in vivo; conditions: db/db mice; for change in body weight compared to the control: oral administration
Method: To 7-week-old male db/db mice (type 2 diabetes model animal, C57/BLKS/J-db/db, Korea Research Institute of Bioscience and Biotechnology), 200 μl of PBS as a control and 50 mg/kg of dimethyl lobamide as an experimental group were orally administered daily. After administration, in order to investigate the change in body weight, the compound (dimethyl-lobamide) was orally administered twice a week at a fixed time, and then the body weight was measured using an animal scale.

[4] = molecular target: T1, protein tyrosine phosphatase-1B (PTP-1B); conditions: comparison compounds; lobarstin from Korean Patent Registration No. 10-1481141; read-out: IC50 of PTP-1B inhibitory activity, comparison value; cited from earlier work

IC50 ([1]; 0.5 μg/mL PTP-1B, pNPP, room temperature 30 minutes, absorbance 405 nm) | Compound | PTP-1B inhibition rate ([1]; 0-25 nM) | average blood glucose on day 0 ([2]; db/db mice, 50 mg/kg oral daily, after fasting 6 hours, day 0) | average blood glucose on day 7 ([2]; db/db mice, 50 mg/kg oral daily, after fasting 6 hours, day 7) | average blood glucose on day 14 ([2]; db/db mice, 50 mg/kg oral daily, after fasting 6 hours, day 14) | increase in blood glucose versus control ([2]; db/db mice, 50 mg/kg oral, day 0 to 14) | antidiabetic effects by oral administration [2] | average body weight on day 0 ([3]; 50 mg/kg oral, day 0) | average body weight on day 7 ([3]; 50 mg/kg oral, day 7) | average body weight on day 14 ([3]; 50 mg/kg oral, day 14) | change in body weight compared to the control [3] | change in body weight compared to the control ([3]; listed as dimethyl-lobamide) | IC50 [4]
2.16 nM | CCCCCc1c(Oc2cc(OC)cc(C(=O)CCCC)c2C(=O)N(C)C)c(O)cc(O)c1C(=O)O [dimethyl lobamide] | increased in a concentration-dependent manner | 193 mg/dL | 194 mg/dL | 268 mg/dL | lower increase in blood glucose than the control | could have the antidiabetic effects by oral administration | 30.95 g | 31.78 g | 34.86 g | body weight reducing effects were demonstrated | no significant change in body weight | –
– | CCC/C=C1/OC(=O)c2c(Oc3c(O)cc(O)c(C(=O)O)c3CCCCC)cc(OC)cc21 [lobarstin, reference compound] | – | – | – | – | – | no antidiabetic effects by oral administration | – | – | – | – | – | 154 nM
